The values that follow come from US9206200B2, “N-linked lactam M1 receptor positive allosteric mogulators” (Merck Sharp & Dohme Corp., priority 2011, dated 2015).

One assay deals with T1, acetylcholine muscarinic M1 receptor (Homo sapiens, UniProt P11229).
T1 construct: expressed in transfected cells; host or cells: CHOnfat cells (CHO cells with an NFAT reporter) expressing hM1, kept under Geneticin selection
T1 sequence (P11229 1-460): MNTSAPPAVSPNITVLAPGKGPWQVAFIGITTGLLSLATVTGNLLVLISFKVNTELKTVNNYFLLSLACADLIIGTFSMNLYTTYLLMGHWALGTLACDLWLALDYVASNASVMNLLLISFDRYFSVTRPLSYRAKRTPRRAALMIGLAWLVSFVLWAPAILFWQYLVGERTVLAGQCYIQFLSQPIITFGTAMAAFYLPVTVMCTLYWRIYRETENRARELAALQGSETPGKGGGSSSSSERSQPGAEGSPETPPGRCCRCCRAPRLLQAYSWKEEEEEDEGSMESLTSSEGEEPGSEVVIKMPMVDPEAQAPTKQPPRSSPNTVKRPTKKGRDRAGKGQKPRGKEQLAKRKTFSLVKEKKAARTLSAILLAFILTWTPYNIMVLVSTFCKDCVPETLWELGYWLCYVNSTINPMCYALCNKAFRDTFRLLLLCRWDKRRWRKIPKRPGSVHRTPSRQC
The experiment in a line: muscarinic FLIPR assay: intracellular calcium in CHOnfat/hM1 cells, potentiation of EC20 acetylcholine. It counts as cell-based. Conditions: Table 1; CHOnfat/hM1 cells, FLIPR, EC20 acetylcholine (3 nM final); read-out: M1 Pot. Here is the method:
The assay studies the effect of one or several concentrations of test compounds on basal or acetylcholine-stimulated Ca^2+ levels using FLIPR.
Compounds are prepared and subjected to a preincubation period of […]. Thereafter, a single EC20 concentration of acetylcholine is added to each well (3 nM final). The intracellular Ca^2+ level of each sample is measured and compared to an acetylcholine control to determine any modulatory activity.
Cells: CHOnfat/hM1, hM2, hM3 or hM4 cells are plated 24 hr before the assay at a density of 18,000 cells/well (100 μL) in a 384 well plate. CHOnfat/hM1 and CHOnfat/hM3 Growth Medium: 90% DMEM (Hi Glucose); 10% HI FBS; 2 mM L-glutamine; 0.1 mM NEAA; Pen-Strep; and 1 mg/ml Geneticin, are added. For M2Gqi5CHOnfat and M4Gqi5CHOnfat cells, an additional 600 ug/ml hygromycin is added.
Equipment: 384 well plate, 120 μl, addition plate; 96-well Whatman 2 ml Uniplate Incubator, 37° C., 5% CO2; Skatron EMBLA-384 Plate Washer; Multimek Pipetting System; Genesis Freedom 200 System; Mosquito System; Temo Nanolitre Pipetting System; and FLIPR^384 Fluorometric Imaging Plate Reader System are used.
Buffers. Assay Buffer: Hanks Balanced Salt Solution, with 20 mM Hepes, 2.5 mM Probenecid (Sigma P-8761) first dissolved in 1 N NaOH, 1% Bovine Serum Albumin (Sigma A-9647). Dye Loading Buffer: Assay Buffer plus 1% Fetal Bovine Serum and Fluo-4AM/Pluronic Acid Mixture. 2 mM Fluo-4AM ester stock in DMSO (Molecular Probes F-14202) Concentration of 2 μM in buffer for a final concentration of 1 μM in Assay. 20% Pluronic Acid Solution stock, with concentration of 0.04% in Buffer, 0.02% in Assay.
65 μL of 2 mM Fluo-4AM are mixed with 130 μL of 20% Pluronic Acid. The resulting solution and 650 μL FBS is added to the assay buffer for a total volume of 65 mL. Positive Controls: 4-Br-A23187: 10 mM in DMSO; final concentration 10 μM. Acetylcholine: 10 mM in water, working stock at both 20 μM and 30 μM in assay buffer, final concentration of 10 μM. This is used to check the maximum stimulation of the CHOK1/hM1 cells. 20 μM (2×) acetylcholine is added in the preincubation part of the assay, and the 30 μM (3×) stock is added in the second part. (EC20)Acetylcholine: 10 mM in water, working stock of 9 nM (3×), and final concentration in assay is 3 nM. This is used after the preincubation with test compounds. Addition of the EC20 Acetylcholine to each well with a test compound will ascertain any modulator activity. 24 wells contain 3 nM Acetylcholine alone as a control.
Determining Activity of Putative Compounds:
Screening Plate Compounds are titrated in 96-well plates (columns 2-11), 100% DMSO, started at a concentration of 15 mM (150× stock concentration), and 3-fold serial dilutions using Genesis Freedom200 System. Four 96-well plates are combined into a 384-well plate using Mosquito Nanolitre Pipetting System by transferring 1 μl of serial diluted compounds to each well, and 1 mM acetylcholine (100× stock concentration) were added as a control. Using Temo, 49 μl assay buffer is added to each well of the 384-well plate right before assay.
In a 96-well Whatman 2 ml Uniplate, 9 nM Acetylcholine (3×) is pipetted into wells corresponding to the screening compounds, and into control wells. The 30 μM acetylcholine control (3×) is added into control wells, and the 3× agonist plate is transferred into a 384 well plate.
Cells are washed three times with 100 μL of buffer, leaving […] of buffer in each well. Using Multimek, 30 μL of Dye Loading Buffer is added into each well and incubated at 37° C., 5% CO2 for up to one hr.
After 60 min, the cells are washed three times with 100 μL of buffer, leaving 30 μL of buffer in each well. The cell plate, screening plate, and agonist addition plates are placed on the platform in the FLIPR and the door closed. A signal test to check background fluorescence and basal fluorescence signal is performed. Laser intensity is adjusted if necessary.
With `O=C1c2cc(CN3CCC4(CC3)COc3ccccc34)c3ccccc3c2CN1C1CCCCC1O` (stereo not drawn) [Example 40, 2-(2-hydroxycyclohexyl)-5-(1′H-spiro[1-benzofuran-3,4′-piperidin]-1′-ylmethyl)-1,2-dihydro-3H-benzo[e]isoindol-3-one], the EC50 amounted to 720 nM. On to `O=C1c2cc(CN3CCN(c4ccc(F)cc4)CC3)c3ccccc3c2CN1[C@H]1CCCC[C@@H]1O` [Example 67, 5-{[4-(4-fluorophenyl)piperazin-1-yl]methyl}-2-[(1S,2S)-2-hydroxycyclohexyl]-1,2-dihydro-3H-benzo[e]isoindol-3-one], for which the EC50 turned out to be 67 nM. Same read-out and setting: for `O=C1c2cc(CN3CCC(F)(F)CC3)c3ccccc3c2CN1C1CCCCC1O` (stereo not drawn) [Example 25, 5-[(4,4-difluoropiperidin-1-yl)methyl]-2-(2-hydroxycyclohexyl)-1,2-dihydro-3H-benzo[e]isoindol-3-one] the value was 12 nM; for `O=C1c2cc(CN3CCN(c4cccnc4)CC3)c3ccccc3c2CN1[C@H]1CCCC[C@@H]1O` [Example 76, 2-[(1S,2S)-2-hydroxycyclohexyl]-5-[(4-pyridin-3-ylpiperazin-1-yl)methyl]-1,2-dihydro-3H-benzo[e]isoindol-3-one], 37 nM. Turning to `COc1ccc(N2CC3CC2CN3Cc2cc3c(c4ccccc24)CN([C@H]2CCCC[C@@H]2O)C3=O)cc1` (stereo partly drawn) [Example 71], the EC50 was 315 nM. The same measure, in the same setting: for `Cn1cc(N2CCN(Cc3cc4c(c5ccccc35)CN([C@H]3CCCC[C@@H]3O)C4=O)CC2)cn1` [Example 80, 2-[(1S,2S)-2-hydroxycyclohexyl]-5-{[4-(1-methyl-1H-pyrazol-4-yl)piperazin-1-yl]methyl}-1,2-dihydro-3H-benzo[e]isoindol-3-one] the value was 1620 nM; for `CS(=O)(=O)c1ccc(N2CCN(Cc3cc4c(c5ccccc35)CN([C@H]3CCCC[C@@H]3O)C4=O)CC2)cc1` [Example 68, 2-[(1S,2S)-2-hydroxycyclohexyl]-5-({4-[4-(methylsulfonyl)phenyl]piperazin-1-yl}methyl)-1,2-dihydro-3H-benzo[e]isoindol-3-one], 47 nM. In the case of `N#CC1(c2cccc(Cl)n2)CCN(Cc2cc3c(c4ccccc24)CN([C@H]2CCCC[C@@H]2O)C3=O)CC1` [Example 48], the EC50 stood at 53 nM.

Staying with this assay, now noted: Table 2; CHOnfat/hM1 cells, FLIPR, EC20 acetylcholine (3 nM final); read-out: M1 Pot.
Consider `O=C1c2cc(CN3CCCCC3)c3cccnc3c2CN1[C@H]1CCCC[C@@H]1O` [Example 86, 8-[(1S,2S)-2-hydroxycyclohexyl]-5-(piperidin-1-ylmethyl)-8,9-dihydro-7H-pyrrolo[3,4-h]quinolin-7-one], for which the EC50 amounted to 2900 nM. Consider `Cc1ccnc(C2(C#N)CCN(Cc3cc4c(c5ncccc35)CN(C3CCCCC3O)C4=O)CC2)c1` (stereo not drawn) [Example 148, 1-{[8-(2-hydroxycyclohexyl)-7-oxo-8,9-dihydro-7H-pyrrolo[3,4-h]quinolin-5-yl]methyl}-4-(4-methylpyridin-2-yl)piperidine-4-carbonitrile], for which the EC50 worked out at 4.7 nM. As for `CC1c2c(cc(CN3CCN(c4cccnc4)CC3)c3cccnc23)C(=O)N1C1CCCCC1O` (stereo not drawn) [Example 163, 8-(2-hydroxycyclohexyl)-9-methyl-5-[(4-pyridin-3-ylpiperazin-1-yl)methyl]-8,9-dihydro-7H-pyrrolo[3,4-h]quinolin-7-one], the EC50 was 520 nM. Still for that read-out and setting: for `CC1c2c(cc(CN3CCN(c4ccc(F)cc4)CC3)c3cccnc23)C(=O)N1C1CCCCC1O` (stereo not drawn) [Example 173, 5-{[4-(4-fluorophenyl)piperazin-1-yl]methyl}-8-(2-hydroxycyclohexyl)-9-methyl-8,9-dihydro-7H-pyrrolo[3,4-h]quinolin-7-one] the value was 100 nM. As for `O=C1c2cc(CN3CCC(F)CC3)c3cccnc3c2CN1C1CCCCC1O` (stereo not drawn) [Example 91, 5-[(4-fluoropiperidin-1-yl)methyl]-8-(2-hydroxycyclohexyl)-8,9-dihydro-7H-pyrrolo[3,4-h]quinolin-7-one], the EC50 turned out to be 88 nM. In the case of `O=C1c2cc(CN3CCC(c4ccncc4)CC3)c3cccnc3c2CN1C1CCCCC1O` (stereo not drawn) [Example 142, 8-(2-hydroxycyclohexyl)-5-[(4-pyridin-4-ylpiperidin-1-yl)methyl]-8,9-dihydro-7H-pyrrolo[3,4-h]quinolin-7-one], the EC50 was found to be 51 nM. With `CC1c2c(cc(CN3CCN(c4ccccn4)CC3)c3cccnc23)C(=O)N1C1CCCCC1O` (stereo not drawn) [Example 166, 8-(2-hydroxycyclohexyl)-9-methyl-5-[(4-pyridin-2-ylpiperazin-1-yl)methyl]-8,9-dihydro-7H-pyrrolo[3,4-h]quinolin-7-one], the EC50 was 580 nM. Turning to `CC1c2c(cc(CN3CCC(C#N)(c4ccccc4)CC3)c3cccnc23)C(=O)N1C1CCCCC1O` (stereo not drawn) [Example 137, 1-{[8-(2-hydroxycyclohexyl)-9-methyl-7-oxo-8,9-dihydro-7H-pyrrolo[3,4-h]quinolin-5-yl]methyl}-4-phenylpiperidine-4-carbonitrile], the EC50 amounted to 480 nM. Regarding `CC1(C)CCN(Cc2cc3c(c4ncccc24)CN(C2CCCCC2O)C3=O)CC1` (stereo not drawn) [Example 100, 5-[(4,4-dimethylpiperidin-1-yl)methyl]-8-(2-hydroxycyclohexyl)-8,9-dihydro-7H-pyrrolo[3,4-h]quinolin-7-one], the EC50 was 430 nM. With `CC1c2c(cc(CN3CCC(C#N)(c4ccccc4)CC3)c3cccnc23)C(=O)N1C1CCCCC1O` (stereo not drawn) [Example 138, 1-{[8-(2-hydroxycyclohexyl)-9-methyl-7-oxo-8,9-dihydro-7H-pyrrolo[3,4-h]quinolin-5-yl]methyl}-4-phenylpiperidine-4-carbonitrile], the EC50 was found to be 69 nM.

Take `O=C1c2cc(CN3CCC(O)(c4ccncc4)CC3)c3cccnc3c2CN1C1CCCCC1O` (stereo not drawn) [Example 144, 8-(2-hydroxycyclohexyl)-5-[(4-hydroxy-4-pyridin-4-ylpiperidin-1-yl)methyl]-8,9-dihydro-7H-pyrrolo[3,4-h]quinolin-7-one]: the EC50 was found to be 510 nM. As to `C#CC1(F)CCN(Cc2cc3c(c4ncccc24)CN([C@H]2CCCC[C@@H]2O)C3=O)CC1` [Example 103, 5-[(4-ethynyl-4-fluoropiperidin-1-yl)methyl]-8-[(1S,2S)-2-hydroxycyclohexyl]-8,9-dihydro-7H-pyrrolo[3,4-h]quinolin-7-one], the EC50 was found to be 11 nM. Same read-out and setting: for `O=C1c2cc(CN3CCC(F)(F)CC3)c3cccnc3c2CN1C1CCCCC1O` (stereo not drawn) [Example 116, 5-[(4,4-difluoropiperidin-1-yl)methyl]-8-(2-hydroxycyclohexyl)-8,9-dihydro-7H-pyrrolo[3,4-h]quinolin-7-one] the value was 21 nM.
